In patent US11891365B2, “3-alkyl-4-amido-bicyclic [4,5,0] hydroxamic acids as HDAC inhibitors” (Valo Health, Inc., priority 2015, dated 2024):

molecular target: T1, Full length human recombinant HDAC6 protein (Homo sapiens, UniProt Q9UBN7); test: In vitro histone deacetylase assay: enzymatic HDAC6 electrophoretic mobility shift assay; format: biochemical; settings: 1 nM enzyme, 2 μM peptide substrate RHKK(Ac)-NH2, 25° C., 12 concentrations; read-out: Inhibitory Concentration (IC50) Values against HDAC6, Activity Range
T1 sequence (Q9UBN7 1-1215): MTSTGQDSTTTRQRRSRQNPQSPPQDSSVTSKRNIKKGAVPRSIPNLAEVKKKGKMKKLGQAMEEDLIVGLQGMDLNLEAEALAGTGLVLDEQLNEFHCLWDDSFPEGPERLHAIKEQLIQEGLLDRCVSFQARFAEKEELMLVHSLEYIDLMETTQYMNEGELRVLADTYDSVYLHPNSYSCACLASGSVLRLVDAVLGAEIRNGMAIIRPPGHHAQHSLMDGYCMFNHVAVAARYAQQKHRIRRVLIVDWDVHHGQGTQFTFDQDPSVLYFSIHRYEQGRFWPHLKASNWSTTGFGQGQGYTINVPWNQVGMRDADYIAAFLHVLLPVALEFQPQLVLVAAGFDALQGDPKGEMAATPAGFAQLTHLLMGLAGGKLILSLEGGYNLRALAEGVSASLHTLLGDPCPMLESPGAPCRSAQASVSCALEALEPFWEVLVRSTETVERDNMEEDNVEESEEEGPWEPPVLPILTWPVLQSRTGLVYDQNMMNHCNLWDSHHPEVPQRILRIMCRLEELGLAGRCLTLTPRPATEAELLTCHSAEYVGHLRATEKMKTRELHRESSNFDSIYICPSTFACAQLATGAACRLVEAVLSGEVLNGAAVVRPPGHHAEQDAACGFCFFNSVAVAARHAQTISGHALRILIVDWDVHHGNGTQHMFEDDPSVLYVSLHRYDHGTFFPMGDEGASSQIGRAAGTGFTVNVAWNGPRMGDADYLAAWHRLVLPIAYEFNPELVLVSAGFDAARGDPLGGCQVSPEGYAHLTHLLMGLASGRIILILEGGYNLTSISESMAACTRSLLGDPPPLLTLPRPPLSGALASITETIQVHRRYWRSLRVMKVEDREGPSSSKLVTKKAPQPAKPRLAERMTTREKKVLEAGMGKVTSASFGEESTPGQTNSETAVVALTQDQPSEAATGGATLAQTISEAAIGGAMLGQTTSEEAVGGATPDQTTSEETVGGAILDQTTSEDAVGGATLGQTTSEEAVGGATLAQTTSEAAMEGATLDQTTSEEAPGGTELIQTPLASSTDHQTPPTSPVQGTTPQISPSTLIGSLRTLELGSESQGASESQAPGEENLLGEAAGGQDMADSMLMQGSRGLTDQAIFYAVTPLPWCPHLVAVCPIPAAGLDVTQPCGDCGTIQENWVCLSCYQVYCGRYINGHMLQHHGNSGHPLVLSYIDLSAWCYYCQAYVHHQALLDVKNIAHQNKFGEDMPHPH

IC50	SMILES
≤ 100 nM	CC(C)[C@H]1COc2cc(C(=O)NO)ccc2CN1C(=O)C1(C)CCC1 [(S)-N-hydroxy-3-isopropyl-4-(1-methylcyclobutane-1-carbonyl)-2,3,4,5-tetrahydrobenzo[f][1,4]oxazepine-8-carboxamide]
100 to 500 nM	CC(C)[C@H]1COc2cc(C(=O)NO)ccc2CN1C(=O)CC1CCOCC1 [(S)-N-hydroxy-3-isopropyl-4-(2-(tetrahydro-2H-pyran-4-yl)acetyl)-2,3,4,5-tetrahydrobenzo[f][1,4]oxazepine-8-carboxamide]
≤ 100 nM	CC(C)[C@H]1COc2cc(C(=O)NO)ccc2CN1C(=O)C1CCOCC1 [(S)-N-hydroxy-3-isopropyl-4-(tetrahydro-2H-pyran-4-carbonyl)-2,3,4,5-tetrahydrobenzo[f][1,4]oxazepine-8-carboxamide]
≤ 100 nM	C[C@H]1COc2cc(C(=O)NO)ccc2CN1C(=O)C1(C)CCC1 [(S)-N-hydroxy-3-methyl-4-(1-methylcyclobutane-1-carbonyl)-2,3,4,5-tetrahydrobenzo[f][1,4]oxazepine-8-carboxamide]
100 to 500 nM	C[C@H]1COc2cc(C(=O)NO)ccc2CN1C(=O)CC1CCOCC1 [(S)-N-hydroxy-3-methyl-4-(2-(tetrahydro-2H-pyran-4-yl)acetyl)-2,3,4,5-tetrahydrobenzo[f][1,4]oxazepine-8-carboxamide]
≤ 100 nM	C[C@H]1COc2cc(C(=O)NO)ccc2CN1C(=O)C(C)(C)c1cccnc1 [(S)-N-hydroxy-3-methyl-4-(2-methyl-2-(pyridin-3-yl)propanoyl)-2,3,4,5-tetrahydrobenzo[f][1,4]oxazepine-8-carboxamide]
≤ 100 nM	C[C@H]1COc2cc(C(=O)NO)ccc2CN1C(=O)C(C)(C)C1CCOCC1 [(S)-N-hydroxy-3-methyl-4-(2-methyl-2-(tetrahydro-2H-pyran-4-yl)propanoyl)-2,3,4,5-tetrahydrobenzo[f][1,4]oxazepine-8-carboxamide]
≤ 100 nM	C[C@H]1COc2cc(C(=O)NO)ccc2CN1C(=O)CCOCC(F)(F)F [(S)-N-hydroxy-3-methyl-4-(3-(2,2,2-trifluoroethoxy)propanoyl)-2,3,4,5-tetrahydrobenzo[f][1,4]oxazepine-8-carboxamide]
100 to 500 nM	C[C@H]1COc2cc(C(=O)NO)ccc2CN1C(=O)CCOC1CCOCC1 [(S)-N-hydroxy-3-methyl-4-(3-((tetrahydro-2H-pyran-4-yl)oxy)propanoyl)-2,3,4,5-tetrahydrobenzo[f][1,4]oxazepine-8-carboxamide]
≤ 100 nM	C[C@H]1COc2cc(C(=O)NO)ccc2CN1C(=O)C1(C)COC1 [(S)-N-hydroxy-3-methyl-4-(3-methyloxetane-3-carbonyl)-2,3,4,5-tetrahydrobenzo[f][1,4]oxazepine-8-carboxamide]
≤ 100 nM	C[C@H]1COc2cc(C(=O)NO)ccc2CN1C(=O)C1(C)CCOCC1 [(S)-N-hydroxy-3-methyl-4-(4-methyltetrahydro-2H-pyran-4-carbonyl)-2,3,4,5-tetrahydrobenzo[f][1,4]oxazepine-8-carboxamide]
≤ 100 nM	C[C@H]1OCCC[C@@H]1C(=O)N1Cc2ccc(C(=O)NO)cc2OC[C@@H]1C [(S)-N-hydroxy-3-methyl-4-((2R,3S)-2-methyltetrahydro-2H-pyran-3-carbonyl)-2,3,4,5-tetrahydrobenzo[f][1,4]oxazepine-8-carboxamide]
100 to 500 nM	C[C@H]1COc2cc(C(=O)NO)ccc2CN1C(=O)[C@@]1(C)CCCCO1 [(S)-N-hydroxy-3-methyl-4-((R)-2-methyltetrahydro-2H-pyran-2-carbonyl)-2,3,4,5-tetrahydrobenzo[f][1,4]oxazepine-8-carboxamide]
≤ 100 nM	C[C@H]1COc2cc(C(=O)NO)ccc2CN1C(=O)[C@]1(C)CCOC1 [(S)-N-hydroxy-3-methyl-4-((R)-3-methyltetrahydrofuran-3-carbonyl)-2,3,4,5-tetrahydrobenzo[f][1,4]oxazepine-8-carboxamide]
≤ 100 nM	C[C@H]1COc2cc(C(=O)NO)ccc2CN1C(=O)[C@H]1CCCCO1 [(S)-N-hydroxy-3-methyl-4-((R)-tetrahydro-2H-pyran-2-carbonyl)-2,3,4,5-tetrahydrobenzo[f][1,4]oxazepine-8-carboxamide]
≤ 100 nM	C[C@H]1COc2cc(C(=O)NO)ccc2CN1C(=O)[C@@H]1CCCOC1 [(S)-N-hydroxy-3-methyl-4-((R)-tetrahydro-2H-pyran-3-carbonyl)-2,3,4,5-tetrahydrobenzo[f][1,4]oxazepine-8-carboxamide]
≤ 100 nM	C[C@H]1COc2cc(C(=O)NO)ccc2CN1C(=O)[C@@H]1CCOC1 [(S)-N-hydroxy-3-methyl-4-((R)-tetrahydrofuran-3-carbonyl)-2,3,4,5-tetrahydrobenzo[f][1,4]oxazepine-8-carboxamide]
≤ 100 nM	C[C@H]1COc2cc(C(=O)NO)ccc2CN1C(=O)[C@]1(C)CCCCO1 [(S)-N-hydroxy-3-methyl-4-((S)-2-methyltetrahydro-2H-pyran-2-carbonyl)-2,3,4,5-tetrahydrobenzo[f][1,4]oxazepine-8-carboxamide]
≤ 100 nM	C[C@H]1COc2cc(C(=O)NO)ccc2CN1C(=O)[C@@]1(C)CCOC1 [(S)-N-hydroxy-3-methyl-4-((S)-3-methyltetrahydrofuran-3-carbonyl)-2,3,4,5-tetrahydrobenzo[f][1,4]oxazepine-8-carboxamide]
≤ 100 nM	C[C@H]1COc2cc(C(=O)NO)ccc2CN1C(=O)[C@@H]1CCCCO1 [(S)-N-hydroxy-3-methyl-4-((S)-tetrahydro-2H-pyran-2-carbonyl)-2,3,4,5-tetrahydrobenzo[f][1,4]oxazepine-8-carboxamide]
≤ 100 nM	C[C@H]1COc2cc(C(=O)NO)ccc2CN1C(=O)[C@H]1CCCOC1 [(S)-N-hydroxy-3-methyl-4-((S)-tetrahydro-2H-pyran-3-carbonyl)-2,3,4,5-tetrahydrobenzo[f][1,4]oxazepine-8-carboxamide]
≤ 100 nM	C[C@H]1COc2cc(C(=O)NO)ccc2CN1C(=O)[C@H]1CCOC1 [(S)-N-hydroxy-3-methyl-4-((S)-tetrahydrofuran-3-carbonyl)-2,3,4,5-tetrahydrobenzo[f][1,4]oxazepine-8-carboxamide]
≤ 100 nM	C[C@H]1COc2cc(C(=O)NO)ccc2CN1C(=O)C1COC1 [(S)-N-hydroxy-3-methyl-4-(oxetane-3-carbonyl)-2,3,4,5-tetrahydrobenzo[f][1,4]oxazepine-8-carboxamide]
≤ 100 nM	C[C@H]1COc2cc(C(=O)NO)ccc2CN1C(=O)C1CCOCC1 [(S)-N-hydroxy-3-methyl-4-(tetrahydro-2H-pyran-4-carbonyl)-2,3,4,5-tetrahydrobenzo[f][1,4]oxazepine-8-carboxamide]
≤ 100 nM	CCC(=O)N1Cc2ccc(C(=O)NO)cc2OC[C@@H]1C [(S)-N-hydroxy-3-methyl-4-propionyl-2,3,4,5-tetrahydrobenzo[f][1,4]oxazepine-8-carboxamide]
≤ 100 nM	COCC1(C(=O)N2Cc3ccc(C(=O)NO)cc3OC[C@@H]2C)CCC1 [(S)-N-hydroxy-4-(1-(methoxymethyl)cyclobutane-1-carbonyl)-3-methyl-2,3,4,5-tetrahydrobenzo[f][1,4]oxazepine-8-carboxamide]
≤ 100 nM	COCC1(C(=O)N2Cc3ccc(C(=O)NO)cc3OC[C@@H]2C)CC1 [(S)-N-hydroxy-4-(1-(methoxymethyl)cyclopropane-1-carbonyl)-3-methyl-2,3,4,5-tetrahydrobenzo[f][1,4]oxazepine-8-carboxamide]
≤ 100 nM	COC1(C(=O)N2Cc3ccc(C(=O)NO)cc3OC[C@@H]2C)CCC1 [(S)-N-hydroxy-4-(1-methoxycyclobutane-1-carbonyl)-3-methyl-2,3,4,5-tetrahydrobenzo[f][1,4]oxazepine-8-carboxamide]
≤ 100 nM	COC1(C(=O)N2Cc3ccc(C(=O)NO)cc3OC[C@@H]2C)CCCCC1 [(S)-N-hydroxy-4-(1-methoxycyclohexane-1-carbonyl)-3-methyl-2,3,4,5-tetrahydrobenzo[f][1,4]oxazepine-8-carboxamide]
≤ 100 nM	COC1(C(=O)N2Cc3ccc(C(=O)NO)cc3OC[C@@H]2C)CCCC1 [(S)-N-hydroxy-4-(1-methoxycyclopentane-1-carbonyl)-3-methyl-2,3,4,5-tetrahydrobenzo[f][1,4]oxazepine-8-carboxamide]
